Experimental data: patent US20210386367A1, “DEVICES AND SYSTEMS FOR GASTROINTESTINAL MICROBIOME DETECTION AND MANIPULATION” (Progenity, Inc., priority 2018, published 2021)
Converted amounts (≈) assume the structure as drawn.

What was measured:
Assay type in all cases: cell-based
[1] = system: Klebsiella spp.; assay: Broth microdilution MIC, 50 clinical isolates (20 K. oxytoca, 30 K. pneumoniae)
Description: Minimal inhibitory concentration (MIC) values were determined by broth microdilution or agar dilution in accordance with guidelines from the Clinical and Laboratory Standards Institute (CLSI; (1) “Methods for Dilution Antimicrobial Susceptibility Tests for Bacteria That Grow Aerobically; Approved Standard; 11th ed.” CLSI standard M07-A11, 2018; (2) “Performance Standards for Antimicrobial Susceptibility Testing; Twenty-Eighth Informational Supplement,” CLSI document M100-S28, 2018; and (3) “Methods for Antimicrobial Susceptibility Testing of Anaerobic Bacteria; Approved Standard—Eighth Edition,” CLSI document M11-A8, 2012).
Tested aerobically by broth microdilution: • Escherichia coli, n=50 • Klebsiella spp., n=50 • Pseudomonas aeruginosa, n=50 • Streptococcus spp., n=50 • Staphylococcus aureus, n=50 • Enterococcus faecalis, n=50 • Enterobacter aerogenes, n=50 • Proteus mirabilis, n=50
Broth microdilution testing of aerobic bacteria was conducted in cation-adjusted Mueller Hinton broth (MHBII). For testing streptococci, lysed horse blood (LHB) was added to MHBII broth at a final concentration of 3%. Where LHB was used, it was added after filtering.
Broth microdilution susceptibility testing in 96-well microplates was conducted in accordance with CLSI methods (1) and (2). Automated liquid handlers were used to conduct serial dilutions and liquid transfers, including the Multidrop 384 (Labsystems, Helsinki, Finland), Biomek 2000, and the Biomek FX (Beckman Coulter, Fullerton, Calif.). All wells in columns 2 through 12 of a standard 96-well microdilution plate (Costar 3795) were filled with 150 μL of the appropriate diluent. Then, 300 μL of the test agents were added to the wells of column 1 of the plates at 100× the highest final concentration to be tested. Serial two-fold dilutions were made across the rows through column 11 using the Biomek 2000. The wells of column 12 contained no drug and served as the growth control wells. This plate served as the “mother plate” from which MIC assay plates or “daughter plates” were made.
The daughter plates were loaded with 190 μL per well of the appropriate medium using the Multidrop 384. The daughter plates were created using the Biomek FX which transferred 2 μL of drug solution from each well of a mother plate to each corresponding well of the daughter plate in a single step. A standardized inoculum of each test organism was prepared per CLSI methods (1) to equal a 0.5 McFarland standard, followed by a dilution of 1:20 for aerobes and 1:10 for anaerobes. The plates were then inoculated with 10 μL of the diluted inoculum using the Biomek 2000 from low to high drug concentration, resulting in a final concentration of approximately 5×10^5 CFU/mL per well. An un-inoculated plate was incubated in parallel for each medium for the purpose of assessing solubility of the drug in the test media.
Inoculated plates were stacked 3 or 4 high, covered with a sterile lid on the top plate, placed into boxes with CO2 planchets (streptococci) or plastic bags (all other isolates). Plates were incubated at 35° C. for 16-24 hr in ambient air for aerobes or for 42-48 hr in the anaerobic environment of the Bactron II anaerobe chamber (Sheldon Manufacturing Co.; Cornelius, Oreg.). Following incubation, the microplates were removed from the incubator and viewed from the bottom using a plate viewer. The MIC values were read and recorded as the lowest concentration of drug that inhibited visible growth of the organism as per CLSI methods (1) and (2).

[2] = system: Pseudomonas aeruginosa; assay: Broth microdilution MIC, 50 clinical isolates
Summary of the method: (§1)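 CLSI broth microdilution in cation-adjusted Mueller Hinton broth, with 3% lysed horse blood added for streptococci. Two-fold dilutions, inoculum ~5×10^5 CFU/mL, 35° C for 16-24 hr in ambient air (streptococci with CO2 planchets). MIC = lowest concentration inhibiting visible growth.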

[3] = system: Enterobacter aerogenes; assay: Broth microdilution MIC, 50 clinical isolates
Summary of the method: as §1

[4] = system: Proteus mirabilis; assay: Broth microdilution MIC, 50 clinical isolates
Summary of the method: as §1

COc1c(N2C[C@@H]3CCCN[C@@H]3C2)c(F)cc2c(=O)c(C(=O)O)cn(C3CC3)c12 [moxifloxacin]
MIC range [1]: 0.015 to 128 µg/mL | Mode [1]: 0.06 µg/mL | Cumulative percentage of isolates at MIC ([1]; 0.015 μg/mL): 2.0% | Number of test isolates at MIC ([1]; 0.015 μg/mL): 1 | Cumulative percentage of isolates at MIC ([1]; 0.03 μg/mL): 8.0% | Number of test isolates at MIC ([1]; 0.03 μg/mL): 3 | Cumulative percentage of isolates at MIC ([1]; 0.06 μg/mL): 56.0% | Number of test isolates at MIC ([1]; 0.06 μg/mL): 24 | Cumulative percentage of isolates at MIC ([1]; 0.5 μg/mL): 77.0% | Number of test isolates at MIC ([1]; 0.5 μg/mL): 2 | Cumulative percentage of isolates at MIC ([1]; 1 μg/mL): 74.0% | Number of test isolates at MIC ([1]; 1 μg/mL): 1 | Cumulative percentage of isolates at MIC ([1]; 2 μg/mL): 80.0% | Number of test isolates at MIC ([1]; 2 μg/mL): 3 | Cumulative percentage of isolates at MIC ([1]; 4 μg/mL): 84.0% | Number of test isolates at MIC ([1]; 4 μg/mL): 2 | Cumulative percentage of isolates at MIC ([1]; 16 μg/mL): 88.0% | Number of test isolates at MIC ([1]; 16 μg/mL): 2 | Cumulative percentage of isolates at MIC ([1]; 32 μg/mL): 94.0% | Number of test isolates at MIC ([1]; 32 μg/mL): 3 | Cumulative percentage of isolates at MIC ([1]; 64 μg/mL): 96.0% | Number of test isolates at MIC ([1]; 64 μg/mL): 1 | Cumulative percentage of isolates at MIC ([1]; 128 μg/mL): 100.0% | Number of test isolates at MIC ([1]; 128 μg/mL): 2 | MIC50 ([1]; Klebsiella, read-out: MIC50): 0.06 µg/mL (≈ 0.149 µM) | MIC90 ([1]; Klebsiella, read-out: MIC90): 32 µg/mL (≈ 79.7 µM) | MIC range [2]: 0.12-32 ^ μg/mL | Mode [2]: 1 µg/mL | Cumulative percentage of isolates inhibited at MIC ([2]; 0.5 μg/mL): 20.0% | Number of test isolates at MIC ([2]; 0.5 μg/mL): 8 | Cumulative percentage of isolates inhibited at MIC ([2]; 1 μg/mL): 58.0% | Number of test isolates at MIC ([2]; 1 μg/mL): 19 | Cumulative percentage of isolates inhibited at MIC ([2]; 2 μg/mL): 60.0% | Number of test isolates at MIC ([2]; 2 μg/mL): 1 | Cumulative percentage of isolates inhibited at MIC ([2]; 4 μg/mL): 66.0% | Number of test isolates at MIC ([2]; 4 μg/mL): 3 | Cumulative percentage of isolates inhibited at MIC ([2]; 8 μg/mL): 78.0% | Number of test isolates at MIC ([2]; 8 μg/mL): 6 | Cumulative percentage of isolates inhibited at MIC ([2]; 16 μg/mL): 90.0% | Number of test isolates at MIC ([2]; 16 μg/mL): 6 | Cumulative percentage of isolates inhibited at MIC ([2]; 32 μg/mL): 100.0% | Number of test isolates at MIC ([2]; 32 μg/mL): 5 | MIC50 ([2]; Pseudomonas aeruginosa, read-out: MIC50): 1 µg/mL (≈ 2.49 µM) | MIC90 ([2]; Pseudomonas aeruginosa, read-out: MIC90): 16 µg/mL (≈ 39.9 µM) | Number of test isolates at MIC ([2]; […]): 1 | MIC range [3]: 0.03 to 0.5 µg/mL | Mode [3]: 0.12 µg/mL | Cumulative percentage of isolates inhibited at MIC ([3]; 0.03 μg/mL): 10.0% | Number of test isolates at MIC ([3]; 0.03 μg/mL): 5 | Cumulative percentage of isolates inhibited at MIC ([3]; 0.06 μg/mL): 50.0% | Number of test isolates at MIC ([3]; 0.06 μg/mL): 20 | Cumulative percentage of isolates inhibited at MIC ([3]; 0.5 μg/mL): 100.0% | Number of test isolates at MIC ([3]; 0.5 μg/mL): 2 | MIC50 ([3]; Klebsiella aerogenes, read-out: MIC50): 0.06 µg/mL (≈ 0.149 µM) | MIC90 ([3]; Klebsiella aerogenes, read-out: MIC90): 0.12 µg/mL (≈ 0.299 µM) | Mode [4]: 0.25 µg/mL | Cumulative percentage of isolates inhibited at MIC ([4]; 0.5 μg/mL): 60.0% | Number of test isolates at MIC ([4]; 0.5 μg/mL): 9 | Cumulative percentage of isolates inhibited at MIC ([4]; 1 μg/mL): 64.0% | Number of test isolates at MIC ([4]; 1 μg/mL): 2 | Cumulative percentage of isolates inhibited at MIC ([4]; 4 μg/mL): 66.0% | Number of test isolates at MIC ([4]; 4 μg/mL): 1 | Cumulative percentage of isolates inhibited at MIC ([4]; 8 μg/mL): 68.0% | Number of test isolates at MIC ([4]; 8 μg/mL): 1 | Cumulative percentage of isolates inhibited at MIC ([4]; 16 μg/mL): 72.0% | Number of test isolates at MIC ([4]; 16 μg/mL): 2 | Cumulative percentage of isolates inhibited at MIC ([4]; 32 μg/mL): 82.0% | Number of test isolates at MIC ([4]; 32 μg/mL): 5 | Cumulative percentage of isolates inhibited at MIC ([4]; 64 μg/mL): 90.0% | Number of test isolates at MIC ([4]; 64 μg/mL): 4 | Cumulative percentage of isolates inhibited at MIC ([4]; 128 μg/mL): 98.0% | Number of test isolates at MIC ([4]; 128 μg/mL): 4 | Cumulative percentage of isolates inhibited at MIC ([4]; >128 μg/mL): 100.0% | Number of test isolates at MIC ([4]; >128 μg/mL): 1 | MIC50 ([4]; Proteus mirabilis, read-out: MIC50): 0.5 µg/mL (≈ 1.25 µM) | MIC90 ([4]; Proteus mirabilis, read-out: MIC90): 64 µg/mL (≈ 159 µM)
